With `CCn1ncc(C(=O)c2ccc(OC)c(N=S3(=O)CCCCC3)c2Cl)c1O` [Example 4], the melting point was in the range of 137 to 139 °C.
Then `COc1ccc(C(=O)C(C#N)C(=O)C2CC2)c(Cl)c1N=S1(=O)CCCCC1` (stereo not drawn) [Example 5], with 154 to 156 °C; and `CCOc1ccc(C(=O)c2cnn(C)c2O)c(Cl)c1N=S1(=O)CCCCC1` [Example 12], with 88 to 90 °C; and `CC(C)Oc1ccc(C(=O)c2cnn(C)c2O)c(Cl)c1N=S1(=O)CCCCC1` [Example 16], with 139 to 141 °C.
Consider `COC(=O)c1ccc(C(=O)c2cnn(C)c2O)c(Cl)c1N=S1(=O)CCCCC1` [Example 21], for which the melting point lay within 204 to 206 °C.
In turn, `O=C1CCCC(O)=C1C(=O)c1ccc(-c2ccccc2)c(N=S2(=O)CCCCC2)c1Cl` [Example 23] gave a melting point of 166 to 168 °C.
The compound `COC(=O)c1ccc(C(=O)c2cnn(C)c2O)c(Cl)c1N=S1(=O)CCOCC1` [Example 25] came in with a melting point of 147 to 149 °C.
Then `CCS(=O)(CC)=Nc1c(C(=O)OC)ccc(C(=O)c2cnn(C)c2O)c1Cl` [Example 26], with 69 to 73 °C; and `CCn1ncc(C(=O)c2ccc(C(=O)OC)c(N=S3(=O)CCCCC3)c2Cl)c1O` [Example 30], with 201 to 203 °C; and `Cn1ncc(C(=O)c2cccc(N=S3(=O)CCCCC3)c2)c1O` [Example 35], with 112 to 113 °C.
As to `Cn1ncc(C(=O)c2cccc(N=S3(=O)CCCCC3)c2Cl)c1O` [Example 39], the melting point was in the range of 177 to 179 °C.
In the case of `CSc1ccc(C(=O)C2=C(O)CCCC2=O)c(Cl)c1N=S1(=O)CCCCC1` [Example 41], the melting point lay within 178 to 180 °C.
Then `CSc1ccc(C(=O)c2cnn(C)c2O)c(Cl)c1N=S1(=O)CCCCC1` [Example 42], with 157 to 159 °C; and `Cn1ncc(C(=O)c2ccc(C#N)c(N=S3(=O)CCCCC3)c2Cl)c1O` [Example 44], with 192 to 196 °C.
Compound `CCOC(=O)c1ccc(C(=O)c2cnn(C)c2O)c(Cl)c1N=S1(=O)CCCCC1` [Example 47] came in with a melting point of 88 to 91 °C.
`Cn1ncc(C(=O)c2ccc(OC3CCCC3)c(N=S3(=O)CCCCC3)c2Cl)c1O` [Example 49] showed a melting point of 145 to 148 °C.
With `COCc1ccc(C(=O)c2cnn(C)c2O)c(Cl)c1N=S1(=O)CCCCC1` [Example 52], the melting point is 78 to 82 °C.
Then `CON=Cc1ccc(C(=O)c2cnn(C)c2O)c(Cl)c1N=S1(=O)CCCCC1` [Example 55], with 98 to 105 °C; and `COc1ccc(C(=O)c2c(C3CC3)nn(C)c2O)c(Cl)c1N=S1(=O)CCCCC1` [Example 56], with 145 to 147 °C; and `O=C1CCCC(O)=C1C(=O)c1ccc(OCc2ccccc2)c(N=S2(=O)CCCCC2)c1Cl` [Example 65], with 152 to 155 °C.
In the case of `Cn1ncc(C(=O)c2ccc(OCc3ccccc3)c(N=S3(=O)CCCCC3)c2Cl)c1O` [Example 66], the melting point was in the range of 95 to 97 °C.
Then `COC(=O)c1ccc(C(=O)c2cnn(C)c2O)c(Br)c1N=S1(=O)CCOCC1` [Example 69], with 158 to 164 °C; and `CCn1ncc(C(=O)c2ccc(C(=O)OC)c(N=S3(=O)CCOCC3)c2Br)c1O` [Example 74], with 210 to 215 °C; and `COc1ccc(C(=O)c2cnn(C)c2O)c([N+](=O)[O-])c1N=S1(=O)CCCCC1` [Example 76], with 179 to 181 °C.
On to `CCn1ncc(C(=O)c2ccc(OC)c(N=S3(=O)CCCCC3)c2[N+](=O)[O-])c1O` [Example 77], for which the melting point is 190 to 192 °C.
`CC(=O)OCc1ccc(C(=O)c2cnn(C)c2O)c(Cl)c1N=S1(=O)CCCCC1` [Example 83] registered a melting point of 64 to 68 °C.
Then `COc1ccc(C(=O)c2cnn(C(C)(C)C)c2O)c(Cl)c1N=S1(=O)CCCCC1` [Example 88], with 200 to 202 °C; and `COC(=O)/C=C/c1ccc(C(=O)c2cnn(C)c2O)c(Cl)c1N=S1(=O)CCCCC1` [Example 91], with 145 to 150 °C.
Then `COc1ccc(C(=O)C2=C(O)CCCC2=O)c(OC)c1N=S1(=O)CCCCC1` [Example 92], with 129 to 131 °C; and `COC(=O)c1ccc(C(=O)c2cnn(C)c2O)cc1N=S1(=O)CCCCC1` [Example 96], with 133 to 137 °C; and `COc1ccc(C(=O)c2cnn(C)c2O)c(OC)c1N=S1(=O)CCCCC1` [Example 99], with 116 to 118 °C.
Consider `CCS(=O)(CC)=Nc1c(OC)ccc(C(=O)c2cnn(C)c2O)c1OC` [Example 140], for which the melting point lay within 96 to 98 °C.
Then `Cn1ncc(C(=O)c2ccc(OCC(F)(F)F)c(N=S3(=O)CCCCC3)c2Cl)c1O` [Example 144], with 97 to 99 °C; and `CCOc1c(C(=O)c2cnn(C)c2O)ccc(OC)c1N=S1(=O)CCCCC1` [Example 156], with 111 to 113 °C; and `COC(=O)c1ccc(C(=O)C2=C(O)CCCC2=O)c(Cl)c1N=S(C)(C)=O` [Example 160], with 135 to 137 °C.
Then `CCOc1c(C(=O)c2cnn(CC)c2O)ccc(OC)c1N=S1(=O)CCCCC1` [Example 163], with 124 to 126 °C; and `CCS(=O)(CC)=Nc1c(C)ccc(C(=O)c2cnn(C)c2O)c1C` [Example 167], with 126 to 128 °C; and `Cc1ccc(C(=O)c2cnn(C)c2O)c(C)c1N=S(C)(C)=O` [Example 168], with 133 to 135 °C.
Compound `CSc1c(C(=O)c2cnn(C)c2O)ccc(C(F)(F)F)c1N=S1(=O)CCCCC1` [Example 169] yielded a melting point of 155 to 157 °C.
Then `Cn1ncc(C(=O)c2cccc(N=S3(=O)CCCCC3)c2F)c1O` [Example 170], with 162 to 164 °C.
Then `CCOc1ccc(C(=O)c2cnn(C)c2O)c(OC)c1N=S1(=O)CCCCC1` [Example 175], with 109 to 111 °C; and `Cn1ncc(C(=O)c2ccc(Oc3ccccc3)c(N=S3(=O)CCCCC3)c2Cl)c1O` [Example 180], with 134 to 137 °C; and `N#Cc1ccc(C(=O)C2=C(O)CCCC2=O)c(Cl)c1N=S1(=O)CCCCC1` [Example 186], with 124 to 126 °C.
On to `CC(=O)Oc1ccc(C(=O)c2cnn(C)c2O)c(Cl)c1N=S1(=O)CCCCC1` [Example 189], for which the melting point is 135 to 139 °C.
Then `COc1ccc(C(=O)c2cnn(C)c2O)c(Cl)c1N=S(C)(=O)c1cccs1` (stereo not drawn) [Example 192], with 90 to 92 °C.
With `COc1ccc(C(=O)C2=C(O)CCCC2=O)c(Cl)c1N=S(C)(=O)c1cccs1` (stereo not drawn) [Example 194], the melting point fell in the range of 159 to 162 °C.
Then `Cn1ncc(C(=O)c2ccc(OCCC3OCCO3)c(N=S3(=O)CCCCC3)c2Cl)c1O` [Example 199], with 99 to 101 °C; and `CSC(=O)Oc1c(C(=O)c2ccc(OCCC3OCCO3)c(N=S3(=O)CCCCC3)c2Cl)cnn1C` [Example 200], with 159 to 161 °C.
Then `C#CCOc1ccc(C(=O)c2cnn(C)c2O)c(Cl)c1N=S1(=O)CCCCC1` [Example 205], with 169 to 171 °C; and `COCCOc1ccc(C(=O)c2cnn(C)c2O)c(Cl)c1N=S1(=O)CCCCC1` [Example 212], with 153 to 155 °C.
Compound `Cn1ncc(C(=O)c2ccc(-c3cccs3)c(N=S3(=O)CCCCC3)c2Cl)c1O` [Example 214] registered a melting point of 158 to 164 °C.
Then `Cn1ncc(C(=O)c2ccc(OCC3CC3)c(N=S3(=O)CCCCC3)c2Cl)c1O` [Example 215], with 188 to 190 °C; and `COCOc1ccc(C(=O)c2cnn(C)c2O)c(Cl)c1N=S1(=O)CCCCC1` [Example 221], with 93 to 95 °C; and `COc1ccc(C(=O)c2cnn(C)c2O)c(Br)c1N=S1(=O)CCCCC1` [Example 223], with 144 to 146 °C.
`Cn1ncc(C(=O)c2ccc(-c3ccco3)c(N=S3(=O)CCCCC3)c2Cl)c1O` [Example 228] came in with a melting point of 97 to 103 °C.
Then `Cn1ncc(C(=O)c2ccc(O)c(N=S3(=O)CCCCC3)c2Cl)c1O` [Example 233], with 165 to 167 °C; and `COc1ccc(C(=O)c2cnn(C)c2OCC(F)(F)F)c(Cl)c1N=S1(=O)CCCCC1` [Example 235], with 131 to 132 °C.
In the case of `CSCOc1ccc(C(=O)c2cnn(C)c2O)c(Cl)c1N=S1(=O)CCCCC1` [Example 238], the melting point was in the range of 112 to 114 °C.
Regarding `Cn1ncc(C(=O)c2ccc(OCS(C)(=O)=O)c(N=S3(=O)CCCCC3)c2Cl)c1O` [Example 241], the melting point was in the range of 104 to 106 °C.
In turn, `Cn1ncc(C(=O)c2ccc(OCC(F)(F)C(F)(F)F)c(N=S3(=O)CCCCC3)c2Cl)c1O` [Example 242] displayed a melting point of 106 to 108 °C.
`Cn1ncc(C(=O)c2ccc(OC[S+](C)[O-])c(N=S3(=O)CCCCC3)c2Cl)c1O` (stereo not drawn) [Example 245] yielded a melting point of 95 to 97 °C.
`COc1ccc(C(=O)c2cnn(C)c2OC(=O)C2CC2)c(Cl)c1N=S1(=O)CCCCC1` [Example 246] returned a melting point of 129 to 131 °C.
Then `COc1ccc(C(=O)c2cnn(C)c2O)c(Cl)c1N=S(C)(=O)c1ccccc1` (stereo not drawn) [Example 249], with 88 to 91 °C.
In turn, `CCCOc1ccc(C(=O)c2cnn(C)c2O)c(Cl)c1N=S1(=O)CCCCC1` [Example 254] showed a melting point of 85 to 87 °C.
In turn, `CC(=O)c1ccc(C(=O)c2cnn(C)c2O)c(Cl)c1N=S1(=O)CCCCC1` [Example 255] showed a melting point of 100 to 104 °C.
The compound `COCCOCOc1ccc(C(=O)c2cnn(C)c2O)c(Cl)c1N=S1(=O)CCCCC1` [Example 259] gave a melting point of 77 to 79 °C.

Usually melting point stands for the temperature of the solid-liquid transition.

These data come from patent publication US20110144345A1, “SULFOXYIMINO-SUBSTITUTED BENZOYL DERIVATIVE AND HERBICIDE” (NIPPON SODA CO., LTD., priority 2008, published 2011).
